Assay results published in US20230097700A1, “AZETIDINE SULFONAMIDE COMPOUND” (DAIICHI SANKYO COMPANY, LIMITED, priority 2019, published 2023).
Counter-ions that a name gives are not always drawn.

How the values were obtained:
[1] = tested on: ConA induced mouse cytokine production model; test: ConA induced mouse cytokine production model, IFN-γ in the plasma; type: in vivo, mouse (Balb/c); details: one hour before second ConA treatment
Experimental: In this test, mice were treated with concanavalin A (ConA) to activate lymphocytes and the medicinal effect of a test substance was evaluated based on the production of IFN-γ. A system in which cytokine production based on expression of LAT1 is induced, by treating mice with ConA twice at optimal timing, was established. To female Balb/c mice of 7 weeks old, a ConA solution (0.4 mg/mL, Concanavalin A, WAKO, 037-08774) prepared with PBS (D-PBS (−), WAKO, 049-29793) was administered (4 mg/kg, twice at an interval of 16 hours) through the tail vein. Four hours later, under anesthesia by isoflurane inhalation, blood was taken from the posterior vena cava of each of the mice. The blood was centrifuged to collect the plasma. The concentration of IFN-γ in the in plasma was measured by AlphaLISA immunoassay kit (Mouse Interferon-gamma (mIFN-γ) Kit, PerkinElmer, AL501C). Test substance was dissolved in 0.5% MC or mushed in an agate mortar, suspended in 0.5% MC to prepare a solution to be administered (1 or 3 mg/mL) and orally administered one hour before the second treatment with ConA so as to be 10 mL/kg (10 or 30 mg/kg. To Vehicle group, 0.5% MC was administered similarly so as to be 10 mL/kg). Test substances were evaluated. Suppression rates (%) were calculated in accordance with the following expression. Suppression rate (%)=100−[(average value of test substance administration group−average value of Normal group)/(average value of Vehicle group−average value of Normal group)×100] Whether the data of two groups, Normal group and Vehicle group, differ or not was determined by Student's or Welch's t test. Whether the data of Vehicle group and a test substance administration group are different or not was analyzed by parametric multiple comparison test, Dunnett test. The compounds (test substances) suppressed IFN-γ production in a dose-dependent manner.

[2] = tested on: activated T cells (CD4+ T cells derived from the mouse spleen); test: Incorporation of 3H-thymidine into activated T cells; type: cell-based, mouse (C57BL/6J); details: 3H-thymidine incorporation, mouse spleen CD4+ T cells activated with Dynabeads Mouse T-Activator CD3/CD28
Experimental: Effect of a test substance on incorporation of ^3H-thymidine was evaluated using T cells derived from the mouse spleen. The spleen was excised out from a C57BL/6J mouse euthanized, cut into pieces, ground on a cell strainer (40 μm mesh) and centrifuged to collect spleen cells. CD4+ T cells were isolated from the spleen cells by use of EasySep Mouse CD4+ T cell isolation kit (STEMCELL Technologies). CD4+ T cells were seeded to a 96-well round-bottom plate. Test substance dissolved in DMSO (dimethyl sulfoxide) or vehicle (DMSO) was added to culture medium and Dynabeads Mouse T-Activator CD3/CD28 (Thermo Fisher Scientific Inc.) was added. Culture was carried out at 37° C. in 5% CO2. After culture was carried out for 24 hours, ^3H-thymidine (PerkinElmer) diluted with the culture medium was added to individual wells. Culture was further carried out overnight at 37° C. in 5% CO2. In order to measure ^3H-thymidine incorporated in nuclei of the cells, the cells were collected on a filter plate UniFilter-96 GF/B (PerkinElmer) by use of a FilterMate Universal Harvester (PerkinElmer). After the filter plate was placed in a dryer and allowed to stand still for 2 hours or more, scintillation cocktail MicroScint-O (PerkinElmer) was added and radioactivity was measured by TopCount NXT (PerkinElmer). With the radioactivity of a group not containing a test substance being specified as 100% and the radioactivity of a group not activated being specified as 0%, relative radioactivity values of individual wells to which the test substance was added (proliferation rate, % of vehicle) were calculated. The values of “% of vehicle” were entered in analysis software Prism (Version 4.03, GraphPad Software). “Nonlinear regression Log (inhibitor) vs reaction variable tilt” was selected and sigmoid type-fitting (Bottom=0, Top=100) was carried out to calculate 50% inhibition concentration (IC50). The compound of the present invention suppresses ^3H-thymidine incorporation in activated T cells.

IC50 [2] [nM]	Structure (SMILES)	Percent suppression (%) ([1]; 10 mg/kg oral)	Percent suppression (%) ([1]; 30 mg/kg oral)
4.8	NC(=O)c1ccc(OC2(c3ccc(F)cc3)CN(S(=O)(=O)c3cccc(C[C@H](N)C(=O)O)c3)C2)cc1 [Example 22, (2S)-2-Amino-3-{3-[3-(4-carbamoylphenoxy)-3-(4-fluorophenyl)azetidine-1-sulfonyl]phenyl}propanoic acid monotrifluoroacetate]	–	–
7.8	N[C@@H](Cc1cccc(S(=O)(=O)N2CC(Oc3cccc(F)c3)(c3ccc(Cl)cc3)C2)c1)C(=O)O [Example 55, (2S)-2-Amino-3-(3-{[3-(4-chlorophenyl)-3-(3-fluorophenoxy)azetidin-1-yl]sulfonyl}phenyl)propanoic acid monoformate]	–	–
23	N[C@@H](Cc1cccc(S(=O)(=O)N2CC(Oc3ccc(F)c(Cl)c3)(c3ccccc3)C2)c1)C(=O)O [Example 17, (2S)-Amino-3-(3-{[3-(3-chloro-4-fluorophenoxy)-3-phenylazetidin-1-yl]sulfonyl}phenyl)propanoic acid]	–	–
7.6	CC(=O)c1ccc(OC2(c3ccc(Cl)cc3)CN(S(=O)(=O)c3cccc(C[C@H](N)C(=O)O)c3)C2)cc1 [Example 9, (2S)-3-{3-[3-(4-Acetylphenoxy)-3-(4-chlorophenyl)azetidin-1yl]sulfonylphenyl}-2-aminopropanoic acid monohydrochloride]	–	–
23	NC(=O)c1ccc(OC2(c3ccc(F)cc3)CN(S(=O)(=O)c3cccc(C[C@H](N)C(=O)O)c3)C2)cn1 [Example 86a, dihydrochloride]	–	–
3.4	N[C@@H](Cc1cccc(S(=O)(=O)N2CC(Oc3ccc4[nH]ncc4c3)(c3ccccc3)C2)c1)C(=O)O [Example 90, (2S)-2-Amino-3-(3-{3-[(1H-indazol-5-yl)oxy]-3-phenylazetidin-1-sulfonyl}phenyl)propanoic acid]	–	–
34	N[C@@H](Cc1cccc(S(=O)(=O)N2CC(Oc3ccc(F)cc3)(c3ccc(F)cn3)C2)c1)C(=O)O [Example 47, (2S)-2-Amino-3-(3-{[3-(4-fluorophenoxy)-3-(5-fluoropyridin-2-yl)azetidin-1-yl]sulfonyl}phenyl)propanoic acid dihydrochloride]	–	–
15	N[C@@H](Cc1cccc(S(=O)(=O)N2CC(Oc3ccccc3)(c3ccccc3)C2)c1)C(=O)O [Example 88, (2S)-2-Amino-3-(3-{[3-(3-phenoxy)-3-phenylazetidin-1-yl]sulfonyl}phenyl)propanoic acid]	–	–

Continued, molecule first:

Structure (SMILES)	IC50 [2] [nM]	Percent suppression (%) ([1]; 10 mg/kg oral)	Percent suppression (%) ([1]; 30 mg/kg oral)
CC(C)C(OC(=O)[C@@H](N)Cc1cccc(S(=O)(=O)N2CC(Oc3ccccc3)(c3ccc(F)cc3)C2)c1)C(=O)N(C)C.Cl (stereo partly drawn) [Example 93, 1-(Dimethylamino)-3-methyl-1-oxobutan-2-yl (2S)-2-amino-3-(3-{[3-(4-fluorophenyl)-3-phenoxyazetidin-1-yl]sulfonyl}phenyl)propanoate monohydrochloride]	–	46	34
Cl.[2H]c1c([2H])c([2H])c(OC2(c3ccccc3)CN(S(=O)(=O)c3cccc(C[C@H](N)C(=O)OC(C(=O)N(C)C)C(C)C)c3)C2)c([2H])c1[2H] (stereo partly drawn) [Example 25, 1-(Dimethylamino)-3-methyl-1-oxobutan-2-yl (2S)-2-amino-3-(3-{3-phenyl-3-[(^2H5)phenyloxy]azetidin-1-sulfonyl}phenyl)propanoate monohydrochloride]	–	31	51
CC(C)C(OC(=O)[C@@H](N)Cc1cccc(S(=O)(=O)N2CC(Oc3ccccc3)(c3ccccc3)C2)c1)C(=O)N(C)C.Cl (stereo partly drawn) [Example 91, 1-(Dimethylamino)-3-methyl-1-oxobutan-2-yl (2S)-2-amino-3-[3-(3-phenoxy-3-phenylazetidin-1-sulfonyl)phenyl]propanoate monohydrochloride]	–	55	53
Cl.[2H]c1c([2H])c([2H])c(OC2(c3ccc(F)cc3)CN(S(=O)(=O)c3cccc(C[C@H](N)C(=O)OC(C(=O)N(C)C)C(C)C)c3)C2)c([2H])c1[2H] (stereo partly drawn) [Example 27, 1-(Dimethylamino)-3-methyl-1-oxobutan-2-yl (2S)-2-amino-3-(3-{3-(4-fluorophenyl)-3-[(^2H5)phenyloxy]azetidin-1-sulfonyl}phenyl)propanoate monohydrochloride]	–	47	58
CC(C)C(OC(=O)[C@@H](N)Cc1cccc(S(=O)(=O)N2CC(Oc3ccc(F)cc3)(c3ccc(F)cn3)C2)c1)C(=O)N(C)C.Cl.Cl (stereo partly drawn) [Example 69, 1-(Dimethylamino)-3-methyl-1-oxobutan-2-yl (2S)-2-amino-3-(3-{[3-(4-fluorophenoxy)-3-(5-fluoropyridin-2-yl)azetidin-1-yl]sulfonyl}phenyl)propanoate dihydrochloride]	–	33	44
N#Cc1ccc(OC2(c3ccc(F)c(F)c3)CN(S(=O)(=O)c3cccc(C[C@H](N)C(=O)O)c3)C2)cc1 [Example 38, (2S)-2-Amino-3-{3-[3-(4-cyanophenoxy)-3-(3,4-difluorophenyl)azetidin-1-sulfonyl]phenyl}propanoic acid monohydrochloride]	17	–	–
CC(=O)c1ccc(OC2(c3ccc(F)cc3)CN(S(=O)(=O)c3cccc(C[C@H](N)C(=O)O)c3)C2)cc1F [Example 4, (2S)-3-{3-[3-(4-Acetyl-3-fluorophenoxy)-3-(4-fluorophenyl)azetidine-1-sulfonyl]phenyl}-2-aminopropanoic acid monohydrochloride]	12	–	–
CC(OC(=O)[C@@H](N)Cc1cccc(S(=O)(=O)N2CC(Oc3ccc(F)cc3)(c3ccc(F)cn3)C2)c1)C(=O)N(C)C.Cl.Cl (stereo partly drawn) [Example 62, 1-(Dimethylamino)-1-oxopurpan-2-yl (2S)-2-amino-3-(3-{[3-(4-fluorophenoxy)-3-(5-fluoropyridin-2-yl)azetidin-1-yl]sulfonyl}phenyl)propanoate dihydrochloride]	–	43	54
CC(=O)c1cc(OC2(c3ccc(F)cc3)CN(S(=O)(=O)c3cccc(C[C@H](N)C(=O)O)c3)C2)ccc1F [Example 5, (2S)-3-{3-[3-(3-Acetyl-4-fluorophenoxy)-3-(4-fluorophenyl)azetidine-1-sulfonyl]phenyl}-2-aminopropanoic acid monohydrochloride]	30	–	–
N[C@@H](Cc1cccc(S(=O)(=O)N2CC(Oc3ccc(Cl)cc3)(c3ccc(F)cc3)C2)c1)C(=O)O [Example 35, (2S)-2-Amino-3-{3-[3-(4-chlorophenoxy)-3-(4-fluorophenyl)azetidine-1-sulfonyl]phenyl}propanoic acid monohydrochloride]	24	–	–
[2H]c1c([2H])c([2H])c(OC2(c3ccccc3)CN(S(=O)(=O)c3cccc(C[C@H](N)C(=O)O)c3)C2)c([2H])c1[2H] [Example 24, (2S)-2-Amino-3-(3-{3-phenyl-3-[(^2H5)phenyloxy]azetidin-1-sulfonyl}phenyl)propanoic acid]	12	–	–
